In PubChem BioAssay AID179 (DTP/NCI, 2004):
Values joined by “and” are separate entries in the source; they are usually repeats but may differ in a detail not shown here. Identical values can stand only once. Active and inactive are the calls of the source.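 How the source made its calls: active means compounds giving half or more protection of infected cells from virus-caused growth loss, again on retest; inactive means the rest.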

System: CEM cells HIV-1 protection, formazan growth assay
Test: NCI AIDS Antiviral Assay
Conditions: for IC50: measured here: growth of uninfected CEM cells
Outline: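 Protection of CEM cells against HIV-1 measured as cell growth via soluble formazan read-out, with five concentrations tested on both infected and uninfected cells; failure to protect may reflect toxicity.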

Row | SMILES | EC50 | IC50 | outcome
1 | COC[C@H]1C(=O)NCC(=O)N2N=CCC[C@H]2C(=O)N(O)[C@H](C)C(=O)O[C@@H](C(C)C)[C@H](NC(=O)[C@@](C)(O)[C@]2(O)CC[C@@H](CC(C)C)[C@H](C)O2)C(=O)N2NCCC[C@@H]2C(=O)N1O | > 0.151 µM | 0.0417 µM | –
2 | CN1C(=S)C2=C(c3ccccc3)N(C)C(=S)C2=C1c1ccccc1 | 102 µM | > 200 µM | –
3 | COc1ccc(N2C(=O)C3c4[nH]c5cccc(Cl)c5c4C4CCC(C(C)(C)C)CC4C3C2=O)cc1 (configuration not stated) | > 200 µM | – | –
4 | COc1ccc(Nc2ccc3c4c(cccc24)C(=O)N(c2ccc(OC)cc2)C3=O)cc1 | > 200 µM | 31.6 µM | –
5 | COC(=O)C1CC23CCCN4CCC5(c6ccccc6N(C=O)C15CC2)C43 (configuration not stated) | > 70.8 µM | > 70.8 µM | –
6 | N#CC1(C#N)NC(c2cccnc2)C(C#N)(C#N)NC1c1cccnc1 (configuration not stated) | > 200 µM | > 200 µM | –
7 | N=c1n(CC(=O)NC23CC4CC(CC(C4)C2)C3)c2ccccc2n1Cc1ccccc1 | > 79.4 µM | 14.1 µM | –
8 | Clc1ccc(CCn2cncn2)cc1 | > 537 µM | 525 µM | –
9 | Cc1cccc(C)c1NC(=O)C(=O)C1C(=O)N(c2ccccc2)N=C1N (configuration not stated) | > 708 µM | > 708 µM | –
10 | CC(=O)Oc1cccc2c1C(=O)C1CC(O)C(O)C3OC(C)(C)OC2(C)C13 (configuration not stated) | > 468 µM | > 468 µM | –
11 | CC1=C(C(=O)O)CCC2(C)c3ccc(C(C)C)c(O)c3CCC12 (configuration not stated) | > 200 µM | 46.8 µM | –
12 | O=C1C=C(N2CCOCC2)c2cc(N3CCOCC3)ncc2C1=O | – | – | inactive
13 | C=CC(C)(C)N1c2ccccc2[C@]2(O)C[C@@H]3C(=O)N4/C=C\C(C)(C)c5[nH]c6ccccc6c5/C=C\4C(=O)N3[C@H]12 | – | – | inactive
14 | Cc1ccc2c(c1)nc1sc(C)cc(=O)n12 | > 200 µM | > 200 µM | –
15 | CC12CC(=O)Nc3ccccc3N1C(c1ccccc1)=NO2 (configuration not stated) | > 200 µM | > 200 µM | –
16 | CC(C)(C)C(=CS(=O)/N=C/c1ccccc1)C(C)(C)C (configuration not stated) | > 24.5 µM | > 24.5 µM | –
17 | O=[N+]([O-])C(=C1c2ccccc2-c2ccccc21)[N+](=O)[O-] | > 135 µM | 18.2 µM | –
18 | C=CCNC(=S)N/C=C(\C#N)C(N)=O | > 200 µM | > 200 µM | –
19 | Cc1cccc(C)c1NC(=O)CCCC(=O)C1/C(=N/NC(=O)CC#N)CCC/C1=N\NC(=O)CC#N (configuration not stated) | > 72.4 µM | > 72.4 µM | –
20 | CCOC(=O)C(=O)NC12CC3CC(CC(C3)C1)C2 | > 724 µM | > 724 µM | –
21 | CC(=O)NNc1nc(C)c(C(/C=C/c2ccc(Cl)cc2)=N\NS(=O)(=O)c2ccc(C)cc2)s1 | > 2.88 µM | > 2.88 µM | –
22 | CCCCCCCCCCCCCCCCOCC(COC1OC(COC(C)=O)C(OC(C)=O)C(OC(C)=O)C1OC(C)=O)OCCCCCCCCCCCCCCCC (configuration not stated) | > 29.5 µM | > 29.5 µM | –

Row | SMILES | EC50 | IC50 | outcome
23 | CCSSc1ccccc1C(=O)O | > 200 µM | 32.4 µM | –
24 | OCC12CCCC(CO)(COC1)C2O (configuration not stated) | > 200 µM | > 200 µM | –
25 | C=CCN(N=O)C(=O)ON1C(=O)CCC1=O | > 1100 µM | 275 µM | –
26 | CC(C)(C)C1CCC2c3c([nH]c4ccccc34)C3C(=O)N(c4ccc(C(=O)O)cc4)C(=O)C3C2C1 (configuration not stated) | > 200 µM | 14.5 µM | –
27 | CC1=C(C(=O)CC(=O)C(=O)Nc2ccc(Cl)cc2C)Sc2ccccc2N1 | > 117 µM | > 117 µM | –
28 | CCOC(=O)/C(=C/c1ccc(Br)cc1)C(=O)c1ccccc1 | > 10.5 µM | > 10.5 µM | –
29 | CSCCC1OCC2OC(n3ccc(=O)[nH]c3=O)CC2N1O (configuration not stated) | > 200 µM | > 200 µM | –
30 | CCOC(=O)NP(=O)(N1CC1)N1CC1 | > 200 µM | > 200 µM | –
31 | COc1ccc(N2C(=O)C3c4[nH]c5ccccc5c4C4CCC(C(C)(C)C)CC4C3C2=O)c(C)c1 (configuration not stated) | > 200 µM | > 200 µM | –
32 | O=C(/C=C/c1ccccc1)C[C@@H](O)C[C@@H]1CC=CC(=O)O1 | > 200 µM | 3.16 µM | –
33 | CC(C)c1ccc(/C=C2\C=Cc3ccccc32)cc1 | > 40.7 µM | > 40.7 µM | –
34 | COc1ccc(N/N=C/C2=CC(C)(C)C(C#N)(C#N)C(O)=C2C#N)cc1 | > 200 µM | 28.2 µM | –
35 | CCC(=O)N(C)[C@@H](C)C(=O)O[C@H]1CC(=O)N(C)c2cc(cc(OC)c2Cl)C/C(C)=C/C=C[C@@H](OC)[C@@]2(O)C[C@H](OC(=O)N2)[C@@H](C)[C@@H]2O[C@@]12C | – | – | inactive
36 | CN(C)/N=C/c1cn(C)c(=O)n(C)c1=O | > 200 µM | > 200 µM | –
37 | COC(=O)C1=C(CS(=O)c2ccccc2[N+](=O)[O-])ON(C)C1c1ccccc1 (configuration not stated) | – | – | inactive
38 | CCCCN1C=CN2c3nc4cc(C)c(C)cc4n3C(C(=O)OC)=C(C(=O)OC)C12 (configuration not stated) | – | – | inactive
39 | NC(=O)NCOC(=S)SSSC(=S)OCNC(N)=O | > 200 µM | 32.4 µM | –
40 | CN(C)NC1=NS(=O)(=O)c2cc3c(=O)n(C)[nH]c3cc2S1 | > 200 µM | 138 µM | –
41 | CCOc1ccc(NC(=O)C(=O)CC(=O)c2c[n+](=O)c3cc(C)c(C)cc3n2[O-])cc1 | > 8.51 µM | > 8.51 µM | –
42 | COc1cccc2c1OC1c3ccccc3OCC1(O)C2 (configuration not stated) | – | – | inactive
43 | c1cc(-c2ccc(-c3ccc(-c4ccc(-c5cccc6nsnc56)[nH]4)c4nsnc34)[nH]2)c2nsnc2c1 | > 100 µM | > 100 µM | –
44 | COc1ccc(C2[C@@H](Cl)C(=O)N2c2ccc(OC)cc2)cc1 (some centres not stated) | – | – | inactive

Row | SMILES | EC50 | IC50 | outcome
45 | C/C=C(\CCC1NCCc2c1[nH]c1ccccc21)[Si](C)(C)C (configuration not stated) | – | – | inactive
46 | CCOC(=O)n1[nH][nH]c2c(c(=O)n(C)c(=O)n2C)n1C(=O)OCC | > 200 µM | > 200 µM | –
47 | COc1nc(N=P(c2ccccc2)(c2ccccc2)c2ccccc2)cc(=O)[nH]1 | – | – | inactive
48 | Cc1cc(-c2ccccc2)oc(=O)c1NC(=O)c1cnccn1 | > 200 µM | 141 µM | –
49 | C=CCCCCCCCC(O)C1C[C@H](O)C(CCCCC)O1 (some centres not stated) | – | – | inactive
50 | CCOC(=O)C1(C#N)C(c2ccccc2)CC(O)(c2ccc(Cl)cc2)C(C(=O)c2ccc(Cl)cc2)C1c1ccccc1 (configuration not stated) | > 12 µM | > 12 µM | –
51 | Cc1ccc2n(c1)cc(-c1ccc(/C=N/NC(=N)N/N=C/c3ccc(-c4cn5cc(C)ccc5[n+]4C)cc3)cc1)[n+]2C | 15.5 µM | 49 µM | –
52 | CC(=O)c1c(C)n(C)c2c1nnc1ccccc12 | > 41.7 µM | 30.2 µM | –
53 | CC(C)=CCC/C(=C/CC/C(C)=C/CCc1ccoc1)C(=O)O | > 295 µM | 107 µM | –
54 | COc1cc2ccc(CC#N)cc2cc1OC | – | – | inactive
55 | CN(C(=O)c1cc2c(s1)sc1c(=O)n(C)c3ccccc3c12)c1ccccc1 | > 200 µM | 2.95 µM | –
56 | N#C/C(=C/NC(=S)N=Nc1c(O)[nH]c2ccccc12)C(N)=O | > 200 µM | 195 µM | –
57 | O=C1C2C3C=CC(O3)C2C(=O)N1/N=C\C(O)C(O)C(O)C(O)CO (configuration not stated) | > 129 µM | > 129 µM | –
58 | CS(=O)(=O)NNS(=O)(=O)c1ccccc1 | > 75.9 µM | > 75.9 µM | –
59 | CCN1C[C@]2(CO)CCC(O)C34[C@@H]5C[C@@H]6C(OC(C)=O)[C@@H]5[C@](OC(C)=O)(C[C@@H]6OC)[C@@H](C(OC)[C@@H]32)[C@H]14 (some centres not stated) | – | – | inactive
60 | Cc1cn(CC2=NC3CCCCC3N2)c(=O)[nH]c1=O (configuration not stated) | > 200 µM | > 200 µM | –
61 | CCOC(=O)c1ccc(CS(=O)(=O)c2ccccc2)cc1 | > 23.4 µM | > 23.4 µM | –
62 | O=C1c2ccsc2C(=O)c2ccsc21 | > 6.61 µM | 5.13 µM | –
63 | c1ccc(-c2sc(-c3ccccc3)c3c2C(c2ccccc2)c2c(-c4ccccc4)sc(-c4ccccc4)c2C3c2ccccc2)cc1 (configuration not stated) | – | – | inactive
64 | O=C1CC(c2ccccc2)=NO1 | > 200 µM | > 200 µM | –
65 | CC1=C(C(=O)NCCc2ccccc2)CC(C(=O)NCCc2ccccc2)=C(C)N1 | > 200 µM | 123 µM | –
66 | CC1(C)OC(=O)C(C#N)=C1/C=C\c1ccco1 | > 1100 µM | > 1100 µM | –

Row | SMILES | EC50 | IC50 | outcome
67 | O=P1(c2ccccc2)c2ccccc2-c2ccccc21 | > 200 µM | 102 µM | –
68 | O=c1oc2ccccc2c(O)c1C(c1ccco1)c1c(O)c2ccccc2oc1=O | > 200 µM | 33.9 µM | –
69 | CC(C)CCCC(C)[C@H]1CCC2[C@@H]3CCC4C[C@@H](CCC=C(c5cc(Cl)c(O)c(C(=O)NO)c5)c5cc(Cl)c(O)c(C(=O)NO)c5)CC[C@]4(C)C3CC[C@@]21C (some centres not stated) | > 200 µM | > 200 µM | –
70 | Cc1cc2c(=O)cc(-c3ccc(C(F)(F)F)cc3)oc2c(C(=O)O)c1C | – | – | inactive
71 | CSc1nc(N)c(NC2OC(CO)C(O)C2O)c(=O)[nH]1 (configuration not stated) | 81.3 µM and > 200 µM | 110 µM and 112 µM | –
72 | Cn1c(=N)n[n+]([O-])c2ccccc21 | > 200 µM | 3.47 µM and 4.07 µM | –
73 | CCOC(=O)C(=CNC(Cc1c[nH]c2ccccc12)C(=O)OC)C(=O)OCC (configuration not stated) | – | – | inactive
74 | Cc1ccc(S(=O)(=O)NC(CCC(=O)NN)C(=O)NN)cc1 (configuration not stated) | > 200 µM | > 200 µM | –
75 | c1ccc2c(c1)CCN(C1=NCCO1)C2 | > 200 µM | 178 µM | –
76 | c1ccc(OCc2nn3c(-c4ccccc4)nnc3s2)cc1 | > 200 µM | > 200 µM | –
77 | O=C(Cc1nc2ccccc2o1)C(=O)Nc1cccc(Cl)c1 | – | – | inactive
78 | C[C@@H]1C(=O)CC2(O)[C@@]13C[C@@H](OC(=O)[C@@H]3O)[C@@H](C)[C@@]21COC1=O (some centres not stated) | > 813 µM | > 813 µM | –
79 | COc1ccc(C2CC(=O)c3ccccc3O2)cc1 (configuration not stated) | > 200 µM | 97.7 µM | –
80 | O=C(Nc1ccn(C2CC(O)C(CO)O2)c(=O)n1)c1ccccc1 (configuration not stated) | > 200 µM | > 200 µM | –
81 | CCc1cc(Cc2cc(CC)c(NC(=O)C(=O)Cc3ccccn3)c(CC)c2Cl)c(Cl)c(CC)c1NC(=O)C(=O)Cc1ccccn1 | > 72.4 µM | > 72.4 µM | –
82 | CC(/C(=N/NC(=O)C(N)=O)c1c(Cl)ccc(Cl)c1O)C1(O)C(=O)Nc2ccccc21 (configuration not stated) | > 11.5 µM | > 11.5 µM | –
83 | O=C(c1ccc([N+](=O)[O-])cc1)c1no[n+]([O-])c1C(=O)c1ccc([N+](=O)[O-])cc1 | – | – | inactive
84 | CCc1cc(-c2cccc3ccccc23)c(C#N)c(=S)n1C1OC(CO)C(O)C(O)C1O (configuration not stated) | > 200 µM | 61.7 µM | –
85 | O=C(CCc1nnc2s/c(=C\c3ccc(Cl)c(Cl)c3)c(=O)n12)Nc1ccc(Cl)c(Cl)c1 | > 13.2 µM | > 13.2 µM | –
